Key:
STING WT = biological target: T1, STING WT (Homo sapiens, UniProt Q86WV6, H232R); assay: 293T STING digitonin reporter assay (WT haplotype); format: cell-based; conditions: digitonin permeabilised 293T reporter cells
T1 construct: expressed in transfected cells
Description: (§1) Digitonin Assay with 293T Reporter Cells. The generation of 293T reporter cells stably expressing different STING protein haplotypes (WT, HAQ, REF, AQ, or Q) was described previously (Novotna et al, J. Med. Chem. 2019,62, 10676). The cells were seeded at a density of 250 000 cells per cm^2 into 96 well white poly(D-lysine) coated plates in 100 µL of DMEM with high glucose supplemented with 10% heat inactivated FBS. Next day, the medium was removed, and compounds were added in 3-fold serial dilutions in a digitonin buffer containing 50 mM HEPES (pH 7.0), 100 mM KCl, 3 mM MgClz, 0.1 mM DTT, 85 mM sucrose, 0.2% (w/w) BSA, 1 mM ATP, 0.1 mM GTP, and 10 µg/mL digitonin A. After 30 min incubation at 37 °C with 5% CO2, the digitonin buffer was removed, cells were washed once with 100 µL of the cultivation medium, and 100 µL of fresh medium was added to each well. The plates with cells were further incubated for 5 h at 37 °C with 5% CO2. Thereafter, 50 µL of the medium was removed, and 30 µL of Bright-Glo Luciferase Assay System reagent was added to each well. […] Nonlinear regression curve fit with standard slope was used for EC50 value calculations. The EC50 value represents CDN concentration that gives half-maximal response of firefly luciferase in the 293T reporter assay.

STING AQ = biological target: T2, STING AQ (Homo sapiens, UniProt Q86WV6, G230A/H232R/R293Q); assay: 293T STING digitonin reporter assay (AQ haplotype); format: cell-based; conditions: digitonin permeabilised 293T reporter cells
T2 construct: expressed in transfected cells
Description: as §1

[1] = tested on: Her2 expressing HCC1954 breast tumor xenograft; assay: Her2 expressing HCC1954 breast tumor xenograft model; format: in vivo, SCID-beige mice; conditions: single i.v. dose 1.7 mg/kg (40x higher payload dose than in 2.5 mg/kg mAb3-3.3) (Fig. 8)
Description: For in vivo testing in the Her2 expressing HCC1954 breast cancer xenograft mouse model, female SCID-beige mice at 8 to 12 weeks of age (purchased from Charles River Lab) were used for implantation. HCC1954 cells (obtained from ATCC) were cultured in RPMI medium supplemented with 10% fetal bovine serum at 37°C in a humidified incubator with 5% CO2 On the day of implantation, 1 × 10^7 HCC1954 cells were re-suspended in 100µL RPMI1640 serum free media containing 50% Matrigel and implanted subcutaneously in the right flank. After implant, tumors were measured by caliper and mice were weighed two times per week once tumors were palpable. Tumor volumes were calculated from caliper measurements using formula (L × W^2)/2. Animals were pair matched when tumor reached volume 100 - 150 mm^3 (designated as day 1). Two i.v. injections were performed on day 1 and 8 (D1 and D8) of 5mg/kg of anti-Her2 mAbl-3.4 (DAR 3.9), 5mg/kg mAbl-3.11 (DAR 3.9), 5mg/kg isotype mAb-3.4 (DAR 3.9), 5mg/kg anti-Her2 mAb1 or PBS vehicle. […]
Compound 3.13 was conjugated to engineered light chain C110 and heavy chain C375 of anti-Her2 mAb (mAb3) as described above. […] After implant, tumors were measured by caliper and mice were weighed two times per week once tumors were palpable. Tumors were measured in two dimensions and tumor volumes were calculated from caliper measurements using formula (L × W^2)/2. […]

STING REF = biological target: T3, STING REF (Homo sapiens, UniProt Q86WV6); assay: 293T STING digitonin reporter assay (REF haplotype); format: cell-based; conditions: digitonin permeabilised 293T reporter cells
T3 construct: expressed in transfected cells
Description: as §1

plasma cytokines = assay: In vivo plasma cytokine induction after single i.v. injection (multiplex ELISA, Luminex); conditions: single i.v. 1.7mg/kg, Balb/C mice (Fig. 7)
Description: Compound 3.3 was conjugated to the engineered light chain C110 and heavy chain C375 of anti-Her2 mAb (mAb3) as described above (mAb3-3.3). Furthermore, the compound was also conjugated to anti-Her2 mAb (mAb2) via inter-chain Cys (mAb2-3.3). A single intravenous injection of 5 mg/kg mAb2-3.3 (DAR 3.8) and 5 mg/kg mAb3-3.3 (DAR 3.6) was administered to Balb/C mice via tail vein injection. Blood samples were collected from the injected animals at 2, 4, 8, and 20 hours post-injection, and plasma cytokines were measured using multiplex ELISA (Luminex).
Compound 3.3 was conjugated to anti-TROP2 mAb4 via inter-chain Cys and to the engineered light chain C110 and heavy chain C375 of anti-TROP2 mAb5, as described above. […] Blood samples were collected from the injected animals at 2, 4, 8, and 20 hours post-injection, and plasma cytokines were measured using multiplex ELISA (Luminex).

T3 sequence (Q86WV6 whole entry): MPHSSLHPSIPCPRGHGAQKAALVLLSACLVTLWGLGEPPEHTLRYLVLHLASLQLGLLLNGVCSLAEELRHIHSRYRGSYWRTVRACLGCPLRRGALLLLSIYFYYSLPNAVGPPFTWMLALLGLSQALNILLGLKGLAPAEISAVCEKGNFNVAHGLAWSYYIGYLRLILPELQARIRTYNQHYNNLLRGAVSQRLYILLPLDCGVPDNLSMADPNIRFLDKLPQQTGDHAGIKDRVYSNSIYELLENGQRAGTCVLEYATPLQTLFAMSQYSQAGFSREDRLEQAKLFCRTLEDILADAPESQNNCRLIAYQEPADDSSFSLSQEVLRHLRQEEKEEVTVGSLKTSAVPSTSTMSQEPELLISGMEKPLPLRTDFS
T2 sequence (Q86WV6 whole entry G230A/H232R/R293Q): as the sequence (Q86WV6 whole entry) above, with G230A, H232R, R293Q counted along it
T1 sequence (Q86WV6 whole entry H232R): as the sequence (Q86WV6 whole entry) above, with H232R counted along it

In the case of `Nc1ncnc2c1ncn2[C@@H]1O[C@@H]2OCP(=O)(S)O[C@@H]3[C@H](F)[C@@H](COP(=O)(S)OC[C@H]2[C@H]1F)O[C@H]3n1cnc2c(=O)[nH]cnc21` (single isomer, unassigned) [Compound 2.2], the EC50 (STING WT) is reported as 20 nM, the EC50 (STING AQ) is reported as 30 nM and the “effect on HCC1954 tumors” value [1] is reported as “only triggered tumor growth inhibition”. For the same compound, the EC50 (STING REF) was 50 nM and the plasma cytokine levels (plasma cytokines) was “high plasma levels”.

Source: patent EP4610267A1, “CYCLIC DINUCLEOTIDES AND CONJUGATES THEREOF WITH ANTIBODIES” (priority 2024, dated 2025)
